Experimental data from patent publication US9650384B2, “Substituted pyrimidine compounds and methods of use and manufacture” (Duquesne University of the Holy Spirit, priority 2014, dated 2017).
Where two headings read alike, the source gives them in different places.

What was measured:
[1] = system: KB human tumor subline (expressing RFC, FRα, and PCFT); test: Growth inhibition assay, KB human tumor subline; format: cell-based
[2] = system: CHO subline engineered to express human RFC (PC43-10); test: Growth inhibition assay, CHO subline PC43-10 expressing human RFC; format: cell-based
[3] = system: CHO subline engineered to express human FRα (RT16); test: Growth inhibition assay, CHO subline RT16 expressing FRα; format: cell-based; details: read-out: IC50 RT16, FR
[4] = system: CHO subline engineered to express human PCFT (R2/PCFT4); test: Growth inhibition assay, CHO subline R2/PCFT4 expressing PCFT; format: cell-based; details: R2/PCFT4 cells
[5] = system: transporter-null (R2) CHO cells; test: Growth inhibition assay, transporter-null R2 CHO cells; format: cell-based; details: Cricetulus griseus, Table 1, mean of 3 to 10 experiments
AICARFTase = AICARFTase (Homo sapiens, UniProt P31939); details: reported in reference 1; cited from earlier work
GARFTase = biological target: T1, GARFTase (Homo sapiens, UniProt P22102); details: reported in reference 1; cited from earlier work
T1 sequence (P22102 1-1010): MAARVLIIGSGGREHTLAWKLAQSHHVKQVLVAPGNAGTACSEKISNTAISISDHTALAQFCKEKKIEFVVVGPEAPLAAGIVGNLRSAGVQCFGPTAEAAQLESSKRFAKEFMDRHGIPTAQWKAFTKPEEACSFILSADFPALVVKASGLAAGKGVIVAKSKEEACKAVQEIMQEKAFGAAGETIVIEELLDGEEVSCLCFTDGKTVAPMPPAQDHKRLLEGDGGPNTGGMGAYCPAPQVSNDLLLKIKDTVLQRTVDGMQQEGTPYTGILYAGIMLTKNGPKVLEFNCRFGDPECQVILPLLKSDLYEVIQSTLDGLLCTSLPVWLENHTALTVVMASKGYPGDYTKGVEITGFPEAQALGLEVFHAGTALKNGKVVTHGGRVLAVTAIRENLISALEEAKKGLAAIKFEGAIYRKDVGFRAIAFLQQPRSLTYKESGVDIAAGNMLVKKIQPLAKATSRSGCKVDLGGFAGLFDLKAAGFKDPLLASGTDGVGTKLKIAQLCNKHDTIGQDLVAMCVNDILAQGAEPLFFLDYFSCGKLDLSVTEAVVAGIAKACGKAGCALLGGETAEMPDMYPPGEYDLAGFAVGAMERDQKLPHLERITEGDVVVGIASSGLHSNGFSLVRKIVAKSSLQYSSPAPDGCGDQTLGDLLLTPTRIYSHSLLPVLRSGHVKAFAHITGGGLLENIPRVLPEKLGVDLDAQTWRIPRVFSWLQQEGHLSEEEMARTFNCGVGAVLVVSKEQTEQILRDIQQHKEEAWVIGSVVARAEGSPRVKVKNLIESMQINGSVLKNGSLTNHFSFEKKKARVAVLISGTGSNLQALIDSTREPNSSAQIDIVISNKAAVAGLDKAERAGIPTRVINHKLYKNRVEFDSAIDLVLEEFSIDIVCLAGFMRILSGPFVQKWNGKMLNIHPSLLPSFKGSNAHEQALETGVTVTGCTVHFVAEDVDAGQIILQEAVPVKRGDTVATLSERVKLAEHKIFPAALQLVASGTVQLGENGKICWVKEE

[6] = Table 1, growth inhibition by 50% relative to cells without drug, mean of 3 to 10 experiments

AICARFTase, sequence (P31939 whole entry): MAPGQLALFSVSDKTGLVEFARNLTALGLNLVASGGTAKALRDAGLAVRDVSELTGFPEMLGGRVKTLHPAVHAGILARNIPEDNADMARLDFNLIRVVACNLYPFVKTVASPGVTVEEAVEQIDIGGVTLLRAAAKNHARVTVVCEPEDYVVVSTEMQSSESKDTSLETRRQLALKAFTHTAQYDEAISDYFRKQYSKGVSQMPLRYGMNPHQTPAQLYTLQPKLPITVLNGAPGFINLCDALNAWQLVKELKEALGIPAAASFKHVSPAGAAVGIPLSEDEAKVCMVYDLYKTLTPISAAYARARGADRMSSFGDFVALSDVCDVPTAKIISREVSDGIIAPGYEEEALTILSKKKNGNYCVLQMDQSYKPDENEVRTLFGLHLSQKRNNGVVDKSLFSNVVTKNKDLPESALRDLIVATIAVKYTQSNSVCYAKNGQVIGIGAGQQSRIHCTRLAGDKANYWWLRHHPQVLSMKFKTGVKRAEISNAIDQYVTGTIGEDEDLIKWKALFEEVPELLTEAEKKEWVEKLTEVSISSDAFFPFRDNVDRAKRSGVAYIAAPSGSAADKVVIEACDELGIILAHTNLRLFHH

IC50 ([1]; Table 2)	Compound	IC50 ([2]; Table 2)	IC50 ([3]; Table 2)	IC50 ([4]; Table 2)	IC50 [5]	IC50 [1, 6]	IC50 [2, 6]	IC50 [3, 6]	IC50 ([4]; Table 1, mean of 3 to 10 experiments)	inhibition of AICARFTase (AICARFTase)	inhibition of GARFTase (GARFTase)
> 1000 nM	Nc1nc2[nH]cc(CCCSc3ccc(C(=O)N[C@@H](CCC(=O)O)C(=O)O)cc3)c2c(=O)[nH]1 [Compound 10]	> 1000 nM	281 nM	549 nM	–	–	–	–	–	–	–
51 nM	Nc1nc2[nH]cc(CCCOc3ccc(C(=O)N[C@@H](CCC(=O)O)C(=O)O)cc3)c2c(=O)[nH]1 [Compound 9]	53.2 nM	42.2 nM	390 nM	–	–	–	–	–	–	–
9.94 nM	Nc1nc2[nH]cc(CCc3ccc(C(=O)N[C@@H](CCC(=O)O)C(=O)O)cc3)c2c(=O)[nH]1 [PMX, Pemetrexed]	30.6 nM	–	–	> 1000 nM	–	–	–	–	–	–
> 1000 nM	Nc1nc2[nH]cc(CCCCc3cccc(C(=O)N[C@@H](CCC(=O)O)C(=O)O)c3)c2c(=O)[nH]1 [Compound 11]	608 nM	> 1000 nM	> 1000 nM	–	–	–	–	–	–	–

Compound	IC50 ([1]; Table 2)	IC50 ([2]; Table 2)	IC50 ([3]; Table 2)	IC50 ([4]; Table 2)	IC50 [5]	IC50 [1, 6]	IC50 [2, 6]	IC50 [3, 6]	IC50 ([4]; Table 1, mean of 3 to 10 experiments)	inhibition of AICARFTase (AICARFTase)	inhibition of GARFTase (GARFTase)
Nc1nc2[nH]cc(CCCCc3ccc(C(=O)N[C@@H](CCC(=O)O)C(=O)O)cc3)c2c(=O)[nH]1 [Compound 3]	12.7 nM	56.6 nM	8.6 nM	840 nM	–	12.7 nM	56.6 nM	8.6 nM	840 nM	inhibited	inhibited
